# Measured values as given in patent US12274689B2, “Compound for the management of feline diabetes” (INCREVET, INC., priority 2019, dated 2025).
# Columns and labels:
# [1] = tested on: cats with experimental diabetes; settings: subcutaneous injection of a suspension in olive oil; Lukens et al. 1943, 1961; cited from earlier work
# ZDF rats = assay: plasma glucose in male Zucker Diabetic Fatty rats, daily oral dosing (study 338); assay type: in vivo; settings: ZDF rats; after 3 weeks; groups receiving 0.3, 1.0 and 3.0 mg kg^−1 (p<0.05, <0.01 and <0.01)
Compound,hyperglycemia in diabetic cats [1],plasma glucose levels compared to vehicle control (ZDF rats)
O=C(CCc1ccc(O)cc1)c1c(O)cc(O)cc1O[C@@H]1O[C@H](CO)[C@@H](O)[C@H](O)[C@H]1O [phlorizin],dramatic reduction of hyperglycemia,–
"OC[C@H]1O[C@@H](c2ccc(Cl)c(Cc3ccc(OCCOC4CC4)cc3)c2)[C@H](O)[C@@H](O)[C@@H]1O [EGT0001474, bis-proline complex of (2S,3R,4R,5S,6R)-2-(4-chloro-3-(4-(2-cyclopropoxyethoxy)benzyl)phenyl)-6-(hydroxymethyl)tetrahydro-2H-pyran-3,4,5-triol]",–,significantly lower
